Source: ChEMBL document CHEMBL5046240, “Design, synthesis, and evaluation of potent RIPK1 inhibitors with in vivo anti-inflammatory activity” (Eur J Med Chem, 2022)
Calls of active or inactive are those of the source. The rule behind the calls is not given here.

Key:
Mus musculus [1] = assay: Antiinflammatory activity in TNFalpha-induced C57BL/6J mouse systemic inflammatory response syndrome model assessed as reduction in IL-6 production in serum at 3 mg/kg, ip pretreated for 15 mins and measured upto 72 hrs after TNFalpha stimulation; assay type: functional, organism-based
[2] = target: Voltage-gated inwardly rectifying potassium channel KCNH2 (Homo sapiens, UniProt Q12809); assay: Inhibition of hERG expressed in CHO cells at -80 mV holding potential measured after 4mins by automated patch-clamp assay; assay type: toxicity, cell-based
Mus musculus [3] = assay: Anti-necroptosis activity against TNFalpha-induced C57BL/6J mouse systemic inflammatory response syndrome model assessed as reduction in lethal shock at 3 mg/kg, ip pretreated for 15 mins and measured upto 72 hrs after TNFalpha stimulation; assay type: functional, organism-based
[4] = Protein binding in rat plasma by LC-MS/MS based equilibrium dialysis method; assay type: ADME, cell-free; conditions: read-out: PPB (converted)
[5] = AUC (0 to 24 hrs) in Sprague-Dawley rat at 10 mg/kg, po measured upto 24 hrs by LC-MS/MS analysis; assay type: ADME, organism-based; design: route oral, dose 10 mg/kg, time <=24; conditions: in vivo
[6] = Tmax in Sprague-Dawley rat at 10 mg/kg, po measured upto 24 hrs by LC-MS/MS analysis; assay type: ADME, organism-based; conditions: in vivo
CYP2C9 = CYP2C9 (Homo sapiens, UniProt P11712); assay: Inhibition of CYP2C9 (unknown origin) using tolbutamide as cocktail probe substrate at 10 uM preincubated for 20 mins followed by substrate addition and measured after 20 mins by LC-MS/MS analysis relative to control; assay type: ADME; conditions: time 40 min
[7] = Metabolic stability in human liver microsomes assessed as intrinsic clearance by LC-MS/MS analysis; assay type: ADME, Microsome; conditions: read-out: CLH
[8] = Metabolic stability in human liver microsomes assessed as half life by LC-MS/MS analysis; assay type: ADME
[9] = Toxicity in C57BL/6J mouse assessed as effect on liver morphological changes at 5 to 25 mg/kg, po administered daily for 7 days by H and E staining method; assay type: organism-based; conditions: in vivo, 168 h, dose 5-25 mg/kg, time 7 day
[10] = Efflux ratio of permeability across basolateral to apical side over apical to basolateral side in human Caco-2 cells by LC-MS/MS analysis; assay type: ADME, cell-based
[11] = target: T1, Receptor-interacting serine/threonine-protein kinase 1 (Homo sapiens, UniProt Q13546); assay: Binding affinity to wild-type human partial length RIPK1 (M1 to K305 residues) expressed in bacterial expression system measured after 1 hr by Kinomescan method
T1 sequence (Q13546 whole entry): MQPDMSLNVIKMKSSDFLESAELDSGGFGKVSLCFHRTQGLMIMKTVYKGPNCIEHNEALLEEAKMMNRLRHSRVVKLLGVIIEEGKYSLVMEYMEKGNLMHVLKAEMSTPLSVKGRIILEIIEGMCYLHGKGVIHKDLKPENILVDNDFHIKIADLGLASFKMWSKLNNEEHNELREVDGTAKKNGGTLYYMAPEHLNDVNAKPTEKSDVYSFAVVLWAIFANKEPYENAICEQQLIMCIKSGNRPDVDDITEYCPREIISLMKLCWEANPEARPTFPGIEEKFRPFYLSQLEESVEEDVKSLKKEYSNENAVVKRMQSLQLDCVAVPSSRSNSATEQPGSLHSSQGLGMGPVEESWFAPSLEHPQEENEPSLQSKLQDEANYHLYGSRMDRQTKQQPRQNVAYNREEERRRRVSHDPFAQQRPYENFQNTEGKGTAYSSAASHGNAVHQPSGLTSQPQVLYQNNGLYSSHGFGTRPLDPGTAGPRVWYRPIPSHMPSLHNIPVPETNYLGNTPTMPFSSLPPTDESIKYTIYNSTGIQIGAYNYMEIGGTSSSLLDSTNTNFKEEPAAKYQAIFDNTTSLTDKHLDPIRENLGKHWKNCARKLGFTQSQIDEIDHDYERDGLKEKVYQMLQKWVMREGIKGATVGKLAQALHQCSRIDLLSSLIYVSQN

[12] = Half life in Sprague-Dawley rat at 2 mg/kg, iv measured upto 24 hrs by LC-MS/MS analysis; assay type: ADME, organism-based; conditions: in vivo
[13] = Permeability across apical to basolateral side in human Caco-2 cells at pH 7.4 by LC-MS/MS analysis; assay type: ADME, cell-based; conditions: Caco-2, pH 7.4, read-out: permeability
[14] = Toxicity in C57BL/6J mouse assessed as effect on behavioral change at 5 to 25 mg/kg, po administered daily for 7 days; assay type: organism-based; conditions: in vivo, 168 h, dose 5-25 mg/kg, time 7 day
[15] = Metabolic stability in rat liver microsomes assessed as half life by LC-MS/MS analysis; assay type: ADME, Microsome
[16] = Cmax in Sprague-Dawley rat at 10 mg/kg, po measured upto 24 hrs by LC-MS/MS analysis; assay type: ADME, organism-based; design: route oral, dose 10 mg/kg, time <=24; conditions: in vivo
[17] = Clearance in Sprague-Dawley rat at 2 mg/kg, iv measured upto 24 hrs by LC-MS/MS analysis; assay type: ADME, organism-based; conditions: in vivo
[18] = Volume of distribution at steady state in Sprague-Dawley rat at 2 mg/kg, iv measured upto 24 hrs by LC-MS/MS analysis; assay type: ADME, organism-based; conditions: in vivo, read-out: Vdss
[19] = Toxicity in C57BL/6J mouse assessed as effect on food intake at 5 to 25 mg/kg, po administered daily for 7 days; assay type: organism-based; conditions: in vivo, 168 h, dose 5-25 mg/kg, time 7 day
[20] = Fraction unbound clearance in Sprague-Dawley rat; assay type: ADME
[21] = Cmax in Sprague-Dawley rat at 2 mg/kg, iv measured upto 24 hrs by LC-MS/MS analysis; assay type: ADME, organism-based; design: route intravenous, dose 2 mg/kg, time <=24; conditions: in vivo
[22] = Toxicity in C57BL/6J mouse assessed as effect on body weight at 5 to 25 mg/kg, po administered daily for 7 days; assay type: organism-based; conditions: in vivo, 168 h, dose 5-25 mg/kg, time 7 day
[23] = Protein binding in rat plasma assessed as unbound fraction by LC-MS/MS based equilibrium dialysis method; assay type: ADME, cell-free
HT-29 = assay: Anti-necroptic activity in human HT-29 cells assessed as TNFalpha/Z-VAD (TSZ) induced necroptosis by measuring cell viability preincubated for 1 hr followed by TSZ addition ans measured after 24 hrs by celltiter-glo luminescent cell viability assay; assay type: functional, cell-based
CYP2C19 = CYP2C19 (Homo sapiens, UniProt P33261); assay: Inhibition of CYP2C19 (unknown origin) using cocktail of probe as substrate at 10 uM preincubated for 20 mins followed by substrate addition and measured after 20 mins by LC-MS/MS analysis relative to control; assay type: ADME; conditions: time 40 min
Sequence of CYP2C19 (P33261 whole entry): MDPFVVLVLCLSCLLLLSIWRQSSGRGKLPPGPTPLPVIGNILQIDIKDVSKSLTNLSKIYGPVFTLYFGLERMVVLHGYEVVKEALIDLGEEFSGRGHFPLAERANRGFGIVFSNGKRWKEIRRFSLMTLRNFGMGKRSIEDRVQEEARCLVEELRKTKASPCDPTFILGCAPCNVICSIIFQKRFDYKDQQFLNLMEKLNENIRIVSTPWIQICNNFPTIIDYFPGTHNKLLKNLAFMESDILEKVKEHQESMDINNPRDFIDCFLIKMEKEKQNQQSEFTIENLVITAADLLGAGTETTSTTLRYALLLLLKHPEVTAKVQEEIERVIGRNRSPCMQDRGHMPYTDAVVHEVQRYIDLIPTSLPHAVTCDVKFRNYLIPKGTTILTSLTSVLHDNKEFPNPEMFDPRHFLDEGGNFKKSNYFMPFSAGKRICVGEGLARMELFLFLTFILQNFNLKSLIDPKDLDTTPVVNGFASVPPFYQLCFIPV

Sequence of Voltage-gated inwardly rectifying potassium channel KCNH2 (Q12809 whole entry): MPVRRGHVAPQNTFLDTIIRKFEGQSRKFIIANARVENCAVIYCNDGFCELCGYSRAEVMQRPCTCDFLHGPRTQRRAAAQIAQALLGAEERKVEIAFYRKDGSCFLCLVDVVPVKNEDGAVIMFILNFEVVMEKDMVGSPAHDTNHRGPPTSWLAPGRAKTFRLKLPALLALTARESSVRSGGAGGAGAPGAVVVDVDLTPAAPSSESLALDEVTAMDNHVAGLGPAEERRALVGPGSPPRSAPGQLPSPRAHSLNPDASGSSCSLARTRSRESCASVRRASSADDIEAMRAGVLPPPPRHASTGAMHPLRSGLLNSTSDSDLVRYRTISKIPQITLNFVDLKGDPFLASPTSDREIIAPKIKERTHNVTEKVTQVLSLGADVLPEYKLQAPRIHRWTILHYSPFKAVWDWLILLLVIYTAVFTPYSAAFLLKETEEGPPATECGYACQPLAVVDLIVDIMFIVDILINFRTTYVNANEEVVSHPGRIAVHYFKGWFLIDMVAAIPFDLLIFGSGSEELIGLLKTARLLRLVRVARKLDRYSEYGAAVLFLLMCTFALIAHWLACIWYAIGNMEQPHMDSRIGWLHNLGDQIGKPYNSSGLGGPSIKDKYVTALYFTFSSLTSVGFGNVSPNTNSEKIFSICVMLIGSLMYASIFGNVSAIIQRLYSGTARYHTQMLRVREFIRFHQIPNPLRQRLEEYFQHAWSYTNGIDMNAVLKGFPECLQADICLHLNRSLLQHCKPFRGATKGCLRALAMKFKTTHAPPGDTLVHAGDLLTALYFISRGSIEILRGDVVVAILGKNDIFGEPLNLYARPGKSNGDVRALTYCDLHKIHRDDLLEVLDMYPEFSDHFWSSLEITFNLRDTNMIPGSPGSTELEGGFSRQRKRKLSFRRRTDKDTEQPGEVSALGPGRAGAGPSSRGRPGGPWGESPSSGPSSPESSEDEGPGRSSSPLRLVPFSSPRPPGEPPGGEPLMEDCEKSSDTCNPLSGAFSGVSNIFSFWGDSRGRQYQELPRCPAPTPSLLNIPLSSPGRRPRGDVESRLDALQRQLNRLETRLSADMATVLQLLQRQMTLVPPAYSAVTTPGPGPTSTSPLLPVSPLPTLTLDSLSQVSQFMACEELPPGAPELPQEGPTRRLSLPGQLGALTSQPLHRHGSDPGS
Sequence of CYP2C9 (P11712 whole entry): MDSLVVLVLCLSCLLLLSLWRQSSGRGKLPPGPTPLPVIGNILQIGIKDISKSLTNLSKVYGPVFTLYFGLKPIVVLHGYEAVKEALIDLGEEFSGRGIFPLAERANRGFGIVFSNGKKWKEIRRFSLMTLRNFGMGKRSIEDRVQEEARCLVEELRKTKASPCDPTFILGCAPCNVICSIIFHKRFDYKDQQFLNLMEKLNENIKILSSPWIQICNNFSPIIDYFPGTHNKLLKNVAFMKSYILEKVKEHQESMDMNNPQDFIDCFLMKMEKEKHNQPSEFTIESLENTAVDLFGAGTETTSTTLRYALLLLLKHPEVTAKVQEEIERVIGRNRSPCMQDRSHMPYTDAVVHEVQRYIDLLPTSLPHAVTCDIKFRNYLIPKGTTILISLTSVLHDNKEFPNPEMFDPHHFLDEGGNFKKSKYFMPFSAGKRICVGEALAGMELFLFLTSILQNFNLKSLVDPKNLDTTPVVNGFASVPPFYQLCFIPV

SMILES: Cc1ncc(-c2ccc3nc(NC(=O)C4CC4)sc3c2)cc1NC(=O)OC1CCOCC1
- Activity (Mus musculus [1]): Active
- IC50 [2]: > 30000 nM
- Activity (Mus musculus [3]): Active
- fraction unbound [4]: 0.018
- AUC [5]: 1208 ng·h/mL
- Tmax [6]: 1.2 h
- inhibition at 20 min, 10 µM (CYP2C9): 62%
- CLint scaled [7]: 49 mL/min/kg
- half-life [8]: 1.48 h
- Activity [9]: Non-Toxic
- efflux ratio [10]: 1.1
- Kd [11]: 9.2 nM
- half-life [12]: 1 h
- Papp A→B [13]: 33 ×10⁻⁶ cm/s
- Activity [14]: Non-Toxic
- half-life [15]: 0.65 h
- Cmax [16]: 1240 ng/mL
- clearance [17]: 33 mL/min/kg
- Vd [18]: 2.4 L/kg
- Activity [19]: Non-Toxic
- CL free [20]: 183 mL/min/kg
- Cmax [21]: 1330 ng/mL
- Activity [22]: Non-Toxic
- fraction unbound [23]: 0.018
- EC50 (HT-29): 17 nM
- inhibition at 20 min, 10 µM (CYP2C19): 41%
